From PMC6309603 (Molecular diversity, 2018)
Read-outs that look alike come from different tables or passages of the source.

Experiments:
AChE = AChE (Homo sapiens, UniProt P22303); assay: biochemical; settings: for Selectivity for AChE: IC50 (BChE)/IC50 (AChE)
BChE = BChE (Homo sapiens, UniProt P06276); assay: biochemical
BChE, sequence (P06276 29-602): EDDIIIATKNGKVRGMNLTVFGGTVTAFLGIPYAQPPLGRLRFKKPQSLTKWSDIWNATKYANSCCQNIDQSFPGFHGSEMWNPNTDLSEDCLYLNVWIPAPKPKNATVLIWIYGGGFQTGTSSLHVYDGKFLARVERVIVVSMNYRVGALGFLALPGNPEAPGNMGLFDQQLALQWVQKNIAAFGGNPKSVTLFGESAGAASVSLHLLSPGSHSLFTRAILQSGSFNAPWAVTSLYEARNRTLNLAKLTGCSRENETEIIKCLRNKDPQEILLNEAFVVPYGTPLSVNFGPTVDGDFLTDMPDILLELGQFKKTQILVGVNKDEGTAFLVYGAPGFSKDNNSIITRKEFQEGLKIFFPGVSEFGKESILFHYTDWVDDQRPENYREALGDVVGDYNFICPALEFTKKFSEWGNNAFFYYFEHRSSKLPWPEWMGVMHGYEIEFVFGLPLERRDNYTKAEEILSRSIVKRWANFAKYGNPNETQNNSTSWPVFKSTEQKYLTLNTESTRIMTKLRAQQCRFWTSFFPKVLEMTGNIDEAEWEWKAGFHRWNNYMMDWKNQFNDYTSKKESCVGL

AChE, sequence (P22303 32-614): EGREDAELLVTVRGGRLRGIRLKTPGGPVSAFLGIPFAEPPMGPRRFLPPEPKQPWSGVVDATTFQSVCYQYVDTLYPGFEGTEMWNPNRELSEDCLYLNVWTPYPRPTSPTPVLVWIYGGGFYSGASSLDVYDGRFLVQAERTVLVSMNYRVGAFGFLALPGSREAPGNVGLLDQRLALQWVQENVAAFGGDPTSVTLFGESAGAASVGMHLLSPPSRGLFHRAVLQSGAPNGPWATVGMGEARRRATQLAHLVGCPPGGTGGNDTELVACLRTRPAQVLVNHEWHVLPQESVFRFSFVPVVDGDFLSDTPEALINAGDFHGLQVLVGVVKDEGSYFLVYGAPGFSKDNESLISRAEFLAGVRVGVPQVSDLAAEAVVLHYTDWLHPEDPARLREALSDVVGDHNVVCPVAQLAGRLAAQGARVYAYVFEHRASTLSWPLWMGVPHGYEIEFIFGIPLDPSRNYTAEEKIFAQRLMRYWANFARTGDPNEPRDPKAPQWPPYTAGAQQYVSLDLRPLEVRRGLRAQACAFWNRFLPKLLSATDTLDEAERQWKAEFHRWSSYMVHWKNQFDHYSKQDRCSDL

Structure (SMILES) | IC50 (AChE) [µM] | Selectivity for AChE (AChE) | IC50 (BChE) [µM] | inhibitory activity against AChE (in words) (AChE) | selectivity over BChE (in words) (AChE) | IC50 (AChE; read-out: IC50 AChE, means±SD of three assays, 30 min, 30 °C, pH 8.0) [µM] | IC50 (BChE; read-out: IC50 BChE, means±SD of three assays, 30 min, 30 °C, pH 8.0) [µM]
CN(C)CCOc1cccc(/C=C/C(=O)c2cc3ccccc3oc2=O)c1 [Compound 6d, (E)-3-(3-(3-(2-(dimethylamino)ethoxy)phenyl)acryloyl)-2H-chromen-2-one] | 0.92 ± 0.07 | 16.64 | 15.3 ± 1.16 | – | – | – | –
O=C(/C=C/c1ccccc1OCCN1CCOCC1)c1cc2ccccc2oc1=O [Compound 7h, (E)-3-(3-(2-(2-morpholinoethoxy)phenyl)acryloyl)-2H-chromen-2-one] | 261 ± 4.17 | 0.11 | 29 ± 1.23 | – | – | – | –
O=C(/C=C/c1ccccc1OCCN1CCCC1)c1cc2ccccc2oc1=O [Compound 7e, (E)-3-(3-(2-(2-(pyrrolidin-1-yl)ethoxy)phenyl)acryloyl)-2H-chromen-2-one] | 230 ± 14.8 | 0.02 | 3.76 ± 0.35 | poor inhibitory activity | poor selectivity | – | –
O=C(/C=C/c1ccccc1OCCN1CCCCC1)c1cc2ccccc2oc1=O [Compound 7f, (E)-3-(3-(2-(2-(piperidin-1-yl)ethoxy)phenyl)acryloyl)-2H-chromen-2-one] | 29.9 ± 0.98 | 0.15 | 4.5 ± 0.22 | – | – | – | –
O=C(/C=C/c1cccc(OCC(=O)N2CCCCC2)c1)c1cc2ccccc2oc1=O [Compound 10f, (E)-3-(3-(3-(2-oxo-2-(piperidin-1-yl)ethoxy)phenyl)acryloyl)-2H-chromen-2-one] | 152 ± 12.8 | 1.46 | 223 ± 11.5 | – | – | – | –
CN(C)CCOc1ccc(/C=C/C(=O)c2cc3ccccc3oc2=O)cc1 [Compound 5d, (E)-3-(3-(4-(2-(dimethylamino)ethoxy)phenyl)acryloyl)-2H-chromen-2-one] | 0.37 ± 0.03 | – | > 500 | – | – | – | –
CC(C)=CCOc1ccc(/C=C/C(=O)c2cc3ccccc3oc2=O)cc1 [Compound 5j, (E)-3-(3-(4-(3-methylbut-2-enyloxy)phenyl)-prop-2-enoyl)-2H-chromen-2-one] | > 500 | – | > 500 | – | – | – | –
COc1cc(/C=C/C(=O)c2cc3ccccc3oc2=O)cc(OC)c1OCCN(C)C [Compound 13k, (E)-3-(3-(4-(2-(dimethylamino)ethoxy)-3,5-dimethoxyphenyl)acryloyl)-2-chromen-2-one] | – | 1.87 | – | – | – | 7.07 ± 0.46 | 13.2 ± 0.32
CC(C)=CCOc1ccccc1/C=C/C(=O)c1cc2ccccc2oc1=O [Compound 7j, (E)-3-(3-(2-(3-methylbut-2-enyloxy)phenyl)-prop-2-enoyl)-2H-chromen-2-one] | > 500 | <0.20 | 100 ± 6.84 | – | – | – | –
CCN(CC)CCOc1cccc(/C=C/C(=O)c2cc3ccccc3oc2=O)c1 [Compound 6g, (E)-3-(3-(3-(2-(diethylamino)ethoxy)phenyl)acryloyl)-2H-chromen-2-one] | 51.3 ± 1.04 | 0.02 | 1.12 ± 0.11 | – | – | – | –
CC(C)CCOc1ccc(/C=C/C(=O)c2cc3ccccc3oc2=O)cc1 [Compound 5i, (E)-3-(3-(4-(isopentyloxy)phenyl)acryloyl)-2H-chromen-2-one] | > 500 | – | > 500 | – | – | – | –
CC(C)=CCOc1cccc(/C=C/C(=O)c2cc3ccccc3oc2=O)c1 [Compound 6j, (E)-3-(3-(3-(3-methylbut-2-enyloxy)phenyl)-prop-2-enoyl)-2H-chromen-2-one] | > 500 | – | > 500 | – | – | – | –
COc1cc(/C=C/C(=O)c2cc3ccccc3oc2=O)ccc1OCCN1CCCC1 [Compound 12l, (E)-3-(3-(3-methoxy-4-(2-(pyrrolidin-1-yl)ethoxy)phenyl)acryloyl)-2H-chromen-2-one] | 1.67 ± 0.04 | 0.28 | 0.46 ± 0.01 | – | – | – | –
CN(C)C(=O)COc1ccccc1/C=C/C(=O)c1cc2ccccc2oc1=O [Compound 11d, (E)-N,N-dimethyl-2-(2-(3-oxo-3-(2-oxo-2H-chromen-3-yl)prop-1-en-1-yl)phenoxy)acetamide] | > 500 | – | > 500 | – | – | – | –
